In patent US8486898B2, “Compounds and method for inhibiting the activity of gelatinase and collagenase” (Taipei Medical University (TMU), priority 2010, dated 2013):
Where “and” joins values, the source holds several entries; their conditions need not be identical. Identical values can stand only once.

How the values were obtained:
[1] = test system: Collagenase type IV; assay: Assay of Collagenase (DQ-gelatin fluorescence); format: biochemical; settings: DQ-gelatin substrate
Description: Collagenase type IV and DQ-gelatin was applied in this experiment, where DQ^198 (EnzChek Gelatinase/Collagenase Assay Kit, E-12055) is a kind of fluorescent material, which can bonded with gelatin to form DQ-gelatin. […] Thus, the principle of this experiment is that the activity of collagenase is examined by measuring emission intensity of DQ fluorescent as that the chemical bonding between DQ-gelatin can be enzymatically digested by collagenase.
The fluorescence intensity can be measured in a florescence micro-plate reader equipped with standard fluoresce in filters. Digested product from the DQ-gelatin and DQ collagen substrate has absorption wavelength at 495 nm and fluorescence emission wavelength at 515 nm. Therefore, the activity of collagenase can be determined when the fluorescence emission intensity at 515 nm larger than the blank. In other word, the resulting fluorescence emission intensity would decrease at 515 nm if the collagenase inhibitors were applied. The results of collagenase assay are provided on Table 7, and all values are present as Mean±S.E.M.

[2] = test system: MMP-2; assay: Gelatin zymography of HT-1080 supernatants, MMP-2; format: cell-based, human; settings: HT-1080 supernatant; for Inhibitory effectiveness (%) MMP-2: 24 h; for IC50: gelatin zymography
Description: (§1) HT-1080 cell line (ATCC:CCL-121) is a human skin fibroblasts tumor, which is a kind of adherent cell lines, secreting gelatinase, MMP-2 and MMP-9, to extracellular space.
(§2) Before carrying out any experimental process of HT-1080 cell lines, in order to enable HT-1080 cells to secrete more MMP-2 and MMP-9 to extracellular space, the medium RPMI-1640 containing 0.5% FBS (without phenol red) was applied when conducting the subcultivation process. After centrifugation, the medium RPMI-1640 containing only 0.5% FBS was added into centrifugal vials to resuspend the cells, and 20 μL of cell suspension solution was transferred into eppendorfs to mixed with 20 μL Trypan blue for cell dyeing. Finally, calculation of the cell concentration was accomplished by using hemocytometer through optical microscope.
(§3) Suitable amount of the medium RPMI-1640 (based on the cell concentration obtained previous) containing only 0.5% FBS (without phenol red) was applied into the remaining the cell suspension solution, as the resulting concentration of the cell suspension solution around 5×10^5 cells/mL. Afterwards, 500 μL of cell suspension solutions was transferred onto 24-well cell culture plates, followed by 24 hours incubation at 37° C. for the further experiments.
(§4) To evaluation the inhibitory effectiveness of gelatinase of 4GX and 4G, a gelatin zymography is needed to be conducted.
(§5) The cell suspension solution (with concentration about 5×10^5 cells/mL) of the previous cell pre-treatment process was placed to a 24-well cell culture plates for 24 hours of incubation at 37° C. Subsequently, 1 μL of the solutions, containing 4GX and 4G, in different concentrations from 10 to 100 μM (10, 20, 50, 100 μM) were applied into each well respectively as vehicle controls, 1 μL of catechin in concentration of 100 μM was applied into the well as a positive control, whereas the well applied without any compounds is as blank, followed by 24 hours of incubation at 37° C. Afterwards, the plate was placed into ice to terminate the reaction, the supernatant of each well were taken out separately for the further experiments.
(§6) Supernatants and two volume of a sample loading dye (500 mM Tris-HCL, 25% Glycerol, 10% SDS, 0.32% Bromophenol blue, pH 6.8) and one volume of a dye were mixed together to use as the indicator of running end point. Afterwards, the enzyme activity was analyzed by polyacrylamide gel electrophoresis (PAGE).
(§7) 1% of gelatin and 10% of polyacrylamide were contained in the gel of PAGE, where gelatin acts as the substrate for gelatinase (pro MMP-2, MMP-2 and pro MMP-9). The running buffer was 25 mM Tris-base, 192 mM […] and 0.1% sodium dodecyl sulfate (SDS), pH 8.3, and the power supply was 125 V/80 mA.
(§8) Following the electrophoresis, the gel was washed with 2.5% Triton X-100 at 24° C. twice in 30 minutes to remove the dye and SDS from the gel. Afterwards, the gel was incubated with a reacting buffer (50 mM Tris-base, 200 mM NaCl, 5 mM CaCl2 and 0.02% Brij 35, pH 7.5) at 37° C. for 24 hours in a thermostatic cabinet, enabling gelatinase enzymatically react with gelatin. The fixing solution (7% acetic acid and 40% methanol) was subsequently applied to the gel for 30 minutes, in order to secure the proteins onto the gel. After 30 minutes, the gel was stained with Brilliant Blue G-Colloidial, and then destained with the destain solution (10% acetic acid and 40% methanol) for visualization of the gelatinase reactive positions against the background of the gel.
(§9) Finally, the gel was then analyzed by image analysis system (Vilber Lounmat, France), and the analysis software was Bio-1 Dversion 99. Setting the blank as reference, setting as 1, and the other groups are presented in relative values in contrast to blank.
(§10) The formula for calculating the inhibitory effectiveness is presented below. The results of gelatin zymography are provided on Table 6, and all values are presented as Mean±S.E.M. (the values of blank−vehicle controls)×100%

[3] = test system: pro MMP-9; assay: Gelatin zymography of HT-1080 supernatants, pro MMP-9; format: cell-based, human; settings: HT-1080 supernatant; for Inhibitory effectiveness (%) pro MMP-9: 24 h; for IC50: gelatin zymography
Description: as §1, §2, §3, §4, §5, §6, §7, §8, §9, §10

[4] = test system: pro MMP-2; assay: Gelatin zymography of HT-1080 supernatants, pro MMP-2; format: cell-based, human; settings: HT-1080 supernatant; for Inhibitory effectiveness (%) Pro MMP-2: 24 h; for IC50: gelatin zymography
Description: as §1, §2, §3, §4, §5, §6, §7, §8, §9, §10

[5] = test system: HT-1080 cell lines; assay: MTT cell viability assay; format: cell-based, human; settings: HT-1080, 22 h + 2 h MTT, blank = 100, mean ± S.E.M.
Description: as §1, §2, §3
To test the cytotoxicity of 4GX and 4G to HT-1080 cell lines, the cell viability assay need to be conducted. MTT cell viability assay was chosen for this experiment.
The principle of a cell viability assay is the conversion of a yellow tetrazolium salt (MTT; 3-(4,5-Dimethylthiazol-2-yl)-2,5-diphenyl tetrazolium bromide) into a purple product formazan via […] in intact mitochondria, where formazan can be dissolved in dimethylsulfoxide (DMSO). Thus, the increasing yield of resulting product formazan stands for increasing the percentage of cell vitality.
The cell suspension solution (with concentration about 5×10^5 cells/mL) of the previous cell pre-treatment process was placed to a 24-well cell culture plates with 24 hours of incubation under 5% of CO2/air at 37° C. in 70% of humidity, in order to allow cells to grow adherent on the well. After 24 hours of incubation, 1 μL of the solutions containing chemical compounds, 4GX and 4G, prepared in different concentrations (5-100 μM) were applied into each well respectively as vehicle controls, whereas the well applied without any chemical compounds as blank. Finally, the 24-well cell culture plate was placed in incubator for 22 hours of incubation.
Subsequently, the following steps need to avoid the light. After 22 hours of incubation, 50 μL of 5.5 mg/mL MTT was applied in each well for 2 hours of incubation at 37° C. Afterwards, the supernatant was removed from 24-well cell culture plates, and 400 μL DMSO was applied to dissolve the purple product formazan for 15 minutes by shaker at 50 rpm. 150-200 μL of the solution were taken out from each well to examine the adsorption value by ELISA at wavelength 550 nm.
The formula for calculation of cell vitality is presented following: (Adsorption value of vehicle control/blank)×100%

[6] = Transdermal penetration test, Franz-type diffusion cell; format: in vitro ADME, mice; settings: for Average (μg) amount of 4G in the skins: average of three
Description: Franz-type diffusion cell is the apparatus for this experiment, where its structure as a set of vertical double-diffusion and detachable glass containers. The upper donor chamber is a hollow cylindrical for the sample injection, and the bottom of the upper donor chamber has a contacting surface. The lower receptor chamber is double-layered hollow cylindrical diffusion container, where the inner layer of the receptor chamber made of glass contains a fluid for sampling, the outer layer of the receptor chamber is filled with circulating water kept at 37±1° C. for the human body simulation. The contact area between the donor chamber and the receptor chamber is 0.785 cm^2 (the actual penetration area), and the intermediate is fixed with nude and white mice (all three) skins (epidermis facing upwards) by metal clips as the in vitro transdermal penetration barriers.
The experimental method is presented below. First, 4G was dissolved in 30 wt % propylene glycol aqueous solution, followed transferring 0.5 mL of the aqueous solution (containing 0.25 mg) of 4G into the donor chamber of the Franz-type diffusion cell, and top of the open-ended donor chamber was covered with Parafilm® tightly, and the inner receptor chamber was filled with 5.5 mL of the buffer solution (30 wt % ethanol, phosphate buffer solution, pH 7.4), with continuously stirring at 600 rpm. 0.3 mL of the buffer solution was respectively sampled at time points of 1, 2, 4, 6, 8, 10, 12, 24, 36, and 48 hours, and with complete replacement of 0.3 mL of the buffer solution to keep fluid in the diffusion cell the same volume. Finally, the final compound of 4G accumulated in the fluid of the receptor chamber, was analyzed by liquid chromatography tandem mass spectrometry (LC-MS) to investigate the amount of the 4G penetrating through skins and reaching to the blood vessel,
After completing the previous experimental step, the compound, 4G, on the surface of nude and white mice skin were washed with deionized water. Afterwards, the skins were trimmed into the circles with diameter equal to the donor chamber, and following record the skin weight. The skins then placed in homogenizer with 1 mL alcohol at speed 300 rpm for 5 minutes, and followed with centrifugation process at 10000 rpm for 5 minutes. The supernatant was filtered by 0.45 μm PVDF and quantified the content of 4G by LC-MS.

| Compound | Inhibitory effectiveness % (collagenase) ([1]; 20 μM) | Inhibitory effectiveness % (collagenase) ([1]; 40 μM) | Inhibitory effectiveness (%) pro MMP-9 ([3]; 100 μM) | Inhibitory effectiveness (%) Pro MMP-2 ([4]; 100 μM) | Inhibitory effectiveness (%) MMP-2 ([2]; 10 μM) | Inhibitory effectiveness (%) MMP-2 ([2]; 20 μM) | Inhibitory effectiveness (%) MMP-2 ([2]; 50 μM) | IC50 [2] | Vitality (%) ([5]; 10 μM) | Vitality (%) ([5]; 20 μM) | Vitality (%) ([5]; 50 μM) | Vitality (%) ([5]; 100 μM) | Inhibitory effectiveness (%) pro MMP-9 ([3]; 10 μM) | Inhibitory effectiveness (%) pro MMP-9 ([3]; 20 μM) | Inhibitory effectiveness (%) pro MMP-9 ([3]; 50 μM) | IC50 [3] | Inhibitory effectiveness (%) Pro MMP-2 ([4]; 10 μM) | Inhibitory effectiveness (%) Pro MMP-2 ([4]; 20 μM) | Inhibitory effectiveness (%) Pro MMP-2 ([4]; 50 μM) | IC50 [4] | other results |
| --- | --- | --- | --- | --- | --- | --- | --- | --- | --- | --- | --- | --- | --- | --- | --- | --- | --- | --- | --- | --- | --- |
| c1cnc2c(c1)ccc1cccnc12 [1, 10-phenanthroline, reference compound] | 12.80% | 38.41% | – | – | – | – | – | – | – | – | – | – | – | – | – | – | – | – | – | – | – |
| catechin [reference compound] | – | – | 64.30% and 76.07% | 56.30% and 72.97% | – | – | – | – | – | – | – | – | – | – | – | – | – | – | – | – | Inhibitory effectiveness (%) MMP-2 ([2]; 100 μM): 86.77% and 85.00% |
| O=C(OCC1OC(OC(=O)c2cc(O)c(O)c(O)c2)C(OC(=O)c2cc(O)c(O)c(O)c2)C(OC(=O)c2cc(O)c(O)c(O)c2)C1OC(=O)c1ccc(O)cc1)c1cc(O)c(O)c(O)c1 [4GX, 1,2,3,6-tetra-O-galloyl-4-O-(4-hydroxybenzoyl)-β-D-glucopyranoside] | – | – | 45.47% | – | 25.46% | 63.57% | 76.20% | 16.3 µM | 97.18 ± 6.52% | 100.78 ± 4.06% | 105.48 ± 2.18% | 94.31 ± 9.76% | 3.80% | 15.83% | 32.17% | > 100 µM | 15.83% | 31.53% | 62.30% | 30 µM | – |
| O=C(OC[C@H]1O[C@@H](OC(=O)c2cc(O)c(O)c(O)c2)[C@H](OC(=O)c2cc(O)c(O)c(O)c2)[C@@H](OC(=O)c2cc(O)c(O)c(O)c2)[C@@H]1O)c1cc(O)c(O)c(O)c1 [4G, 1,2,3,6-tetra-O-galloyl-β-D-glucose] | 50% and 52.12% | 61.73% | 53.50% | 39.40% | 29.93% | 48.07% | 73.27% | 23 µM | 93.45 ± 4.91% | 87.30 ± 1.93% | 93.06 ± 4.41% | 87.81 ± 7.83% | 18.73% | 28.70% | 44.13% | > 100 µM | 10.13% | 16.80% | 30.13% | 99.6 µM | accumulated amounts of 4G of the fluid in the receptor chamber ([6]; nude and white mice skins, sampled 1 to 48 hours, LC-MS): nearly zero; Percentage of 4G in the mouse skins ([6]; nude mice skin): 27.84%; Average (μg) amount of 4G in the skins ([6]; nude mice skin): 1.17 ± 0.21 µg; The amount of 4G in the skins ([6]; nude mice skin, single samples, 0.25 mg in donor chamber, after 48 hours): 1.42 µg and 1.02 µg and 1.09 µg; Percentage of 4G in the mouse skins ([6]; white mice skin): 74.84%; Average (μg) amount of 4G in the skins ([6]; white mice skin): 6.07 ± 2.43 µg |
